In patent US4663334A, “Heteroaromatic acetylenes useful as antihypertensive agents” (McNeilab, Inc., priority 1985, dated 1987):
Counter-ions that a name gives are not always drawn.

Test system: spontaneously hypertensive rats
Test: Spontaneously Hypertensive Rat (SHR) test
Assay type: in vivo
Details: oral dose 30 mg/kg
Source text: The activity of compounds of formula (I) for the treatment of hypertension may be determined using the Spontaneously Hypertensive Rat (SHR) test as described below.
In this test, the arterial pressure of adult spontaneously hypertensive rats (Charles River) is monitored directly via an aortic cannula. The SH rats are anesthetized with an inhalation anesthetic (ether). The left carotid artery is isolated and cannulated. The tip of the cannula is advanced to the aorta and the cannula is exteriorized behind the neck at the level of the scapula. Animals are placed in individual cages and allowed to recover from the anesthetic and are kept unrestrained. The arterial cannula is connected to the pressure transducer which is attached to the recorder. The test compounds are administered to at least 3 rats at doses selected in the range of 0.1 to 100 mg/kg of body weight by intraperitoneal (i.p.) or oral (p.o.) routes of administration. The arterial pressure and heart rate are monitored for a minimum of 24 hours. A test compound is considered to be active as an antihypertensive agent if the mean arterial pressure (MAP) indicates a fall of >15 mm of Hg. Each animal serves as its own control.

Row | Compound | duration of blood pressure reduction | heart rate change | reduction of hypertensive blood pressure (mean arterial pressure)
1 | CC(C)(C)NCC(O)COc1ccccc1C#Cc1cccnc1 (stereo not drawn) [Example 2, 1-[(1,1-Dimethylethyl)amino]-3-[2-(3-pyridinylethynyl)phenoxy]-2-propanol Hydrochloride Hydrate (4:4:1)] | 10.5 h | -41 beats/min | -54 mm Hg
2 | CC(C)(C)NCC(O)COc1ccccc1C#Cc1ccncc1.O=C(O)/C=C/C(=O)O (stereo not drawn) [Example 1, 1-[(1,1-Dimethylethyl)amino]-3-[2-(4-pyridinylethynyl)phenoxy]-2-propanol (E)-2-Butenedioate] | 7.5 h | -87 beats/min | -46 mm Hg
